These results are taken from patent publication US12718601B2, “Using machine learning and/or neural networks to validate stem cells and their derivatives (2-D cells and 3-D tissues) for use in cell therapy and tissue engineered products” (The United States of America, as represented by the …, priority 2018, dated 2026).

Assay type in all cases: cell-based, human
The test system of test [1] is iRPE. Briefly: QBAM imaging of drug-treated iRPE (image absorbance). Particulars: Healthy-1 and Healthy-2 iRPE, 8-week culture, weekly QBAM imaging. The text has this:
iRPE from each healthy donor (Healthy-1, Healthy-2) were imaged to determine if QBAM imaging affected cell maturation and could measure a large range in variation of iRPE pigmentation. This was done using three culture conditions: (1) control iRPE (no treatment), (2) iRPE treated with a known inducer of RPE maturation (Aphidicolin), and (3) iRPE treated with a known inhibitor of RPE maturation (hedgehog pathway inhibitor-4, HPI4).
Following differentiation, iRPE from donors Healthy-1 and Healthy-2 were placed on a 12-well 0.4 μm polycarbonate transwell plate (Corning, 3401) at a seeding density of 500,000 cells/ml in 0.5 ml. Only six of the 12 wells were used to minimize the time spent outside of the incubator while imaging. QBAM imaging and drug treatments started two or one weeks after seeding for Healthy-1 and Healthy-2 iRPE, respectively. For each culture plate, two of the six wells were treated with either 3.0 μmol/L Aphidicolin (Sigma Aldrich, A0781-10 MG), 30.0 μM HPI4 (Hedgehog Pathway Inhibitor 4, Sigma Aldrich, H4541-25 MG), or no additives to the RPEMM culture medium. RPEMM was changed three times a week and imaged on the same day every week immediately after medium change. […] For Healthy-2 and Healthy-1, a total of six plates were prepared, with six wells occupied in each plate, yielding 36 total wells imaged and analyzed. […]

Test [2] relates to iRPE. Briefly: Single cell image features from DNN-S segmented QBAM images of drug-treated iRPE. Conditions: for CPI_IntegratedIntensityEdge.K (Intensity 10), Mean / ML_MinIntensity.Mean (Intensity 1), Mean: Healthy-2 iRPE, 3.0 μmol/L Aphidicolin or 30.0 μM HPI4. The procedure: QBAM imaging and live cell segmentation allows for hundreds of cell image features to be measured and tracked non-invasively on individual cells throughout iRPE maturation. Thus, the trained DNN-S was used to segment QBAM images of living iRPE (Healthy-1 and Healthy-2 donors) treated with Aphidicolin, HPI-4, or nothing (control). Previously published cell image features and intensity metrics known to correlate to RPE maturation and health were then assessed for significance. […] Importantly, this technique allows for unprecedented hierarchical granularity to the data; enabling not just whole well “bulk” tissue measurements, but also as a function of field of view or at an individual cell level Clustering of treatments based off of two features known to be important to RPE maturation and health, cell area and mean cell intensity were performed. Cell minimum intensity, a new metric related to iRPE function identified using SML, is described further below.
Following differentiation, iRPE from donors Healthy-1 and Healthy-2 were placed on a 12-well 0.4 μm polycarbonate transwell plate (Corning, 3401) at a seeding density of 500,000 cells/ml in 0.5 ml. Only six of the 12 wells were used to minimize the time spent outside of the incubator while imaging. QBAM imaging and drug treatments started two or one weeks after seeding for Healthy-1 and Healthy-2 iRPE, respectively. For each culture plate, two of the six wells were treated with either 3.0 μmol/L Aphidicolin (Sigma Aldrich, A0781-10 MG), 30.0 μM HPI4 (Hedgehog Pathway Inhibitor 4, Sigma Aldrich, H4541-25 MG), or no additives to the RPEMM culture medium. RPEMM was changed three times a week and imaged on the same day every week immediately after medium change. To prevent the culture plate lid from fogging during imaging, culture medium in wells were replaced with room temperature RPEMM (with drugs if needed) immediately before imaging since room temperature medium minimized condensation. RPEMM without drug was added to a well without any cells in it to capture the bright reference image for QBAM imaging. For each well, a 4×3 grid of overlapping images were captured (10-15% image overlap) for image stitching using a Zeiss AxioImager M2 microscope with a 10× objective. For Healthy-2 and Healthy-1, a total of six plates were prepared, with six wells occupied in each plate, yielding 36 total wells imaged and analyzed. The iRPE from AMD samples were previously reported by Sharma et al (Sharma et al., 2018), and the iRPE from OCA donors were cultured as described above, but were only imaged after they had matured and were fixed with PFA. In total five well replicates of OCA8, six replicates from OCA9, four replicates of OCA26, eight replicates of OCA71, and four replicates of OCA103 were imaged. For AMD data 1 replicate of AMD1 Clone A, 5 replicates of AMD1 Clone B, 1 Replicate of AMD2 Clone A, 5 replicates of AMD2 Clone B, 1 replicate of AMD2 Clone C, 1 replicate of AMD3 Clone A, 5 replicates of AMD3 Clone B, and 1 replicate of AMD3 Clone C were imaged.
No preprocessing was performed on QBAM images before they were processed with the DNN-S. The structure of the DNN-S was the same as that used to segment the fluorescent images, except the input image had three channels instead of one. The three channels were three QBAM images captured of the same field of view, but each QBAM image was captured at a different wavelength (488 nm, 561 nm, and 633 nm).
In order to extract as many cell-level features as possible, multiple widely were leveraged used image libraries for feature extraction that have been integrated into WIPP. While the feature values for the same feature definitions might vary, they provide insights on the amount of variation introduced not only by image acquisition but also by image processing. […]

Test [3] concerns iRPE. Description: Electrophysiological measurements (TEP and TER) of iRPE monolayers. Conditions: treated iRPE relative to control. The protocol:
Electrical resistance measurements used for prediction of the iRPE monolayers were measured using an EVOM2 and EndOhm chamber (World Precision Instruments, EVOM2 and ENDOHM-12 respectively). Each line was measured for its resistance across 12 wells per treatment, per week. Intracellular transepithelial potential and resistance measurements in response to 1 mM potassium (Sigma Aldrich, P5405-1 KG) and 100 μM ATP (Sigma Aldrich, A9187-500 MG) were done identically to that of previous reports (Miyagishima et al., In Pursuit of Authenticity: Induced Pluripotent Stem Cell-Derived Retinal Pigment Epithelium for Clinical Applications, STEM CELLS Transl. Med. 5, 1562-1574 (2016)). Briefly, RPE monolayer cultures derived from iPSC lines were mounted on a modified “Ussing” chamber as described previously (Maminishkis et al., The P2Y2 Receptor Agonist INS37217 Stimulates RPE Fluid Transport In Vitro and Retinal Reattachment, Rat. Invest. Ophthalmol. Vis. Sci. 43, 3555-3566 (2002); Peterson et al., Extracellular ATP Activates Calcium Signaling, Ion, and Fluid Transport in Retinal Pigment Epithelium, J. Neurosci. 17, 2324-2337 (1997)). […] The signals from intracellular microelectrodes were referenced to the basal bath to measure the basolateral membrane potential (Vb) and the apical membrane potential (Va) was calculated by the equation: […]. […]

The test system of test [4] is iRPE. Description: mRNA and protein expression of maturation markers in iRPE. Conditions: Aphidicolin treated iRPE compared with HPI4 treated iRPE. The protocol: Tissue preparation for immunohistochemistry was done by placing wells in 4% (mass/volume) paraformaldehyde (Electron Microscopy Science, 157-4-100) for 20 minutes. Immunohistochemistry blocking solution (IBS) consisted of 500 ml of 1× DPBS (Dulbecco's phosphate-buffered saline, Life Technologies, 14190250), 5% (mass/volume) bovine serum albumin (Sigma Aldrich, A3311), 0.5% (mass/volume) Triton X-100 (Sigma Aldrich, X100-100ML), and 0.5% (mass/volume) TWEEN20 (Sigma Aldrich, P2287-100ML). Fixed cells were washed with IBS three times and permeabilized for 2 hours with IBS at room temperature. Cells were then stained with the following primary antibody for 1 hour at room temperature: RPE65 (anti-RPE65 monoclonal antibody [1:300, Abcam, ab13826), Ezrin (monoclonal anti-ezrin antibody, 1:100, Sigma Aldrich, E8897), or GT335 (anti-polyglutamylation modification monoclonal antibody, 1:1000, Adipogen, AG-20B-0020). […] RNA was quantified using an ND-1000 spectrophotometer (Nanodrop Technologies) and the manufacturers protocol. cDNA synthesis was performed using the Script cDNA Synthesis Kit (Bio-Rad, 1708891) and the manufacturer provided protocols. […] An HPI4 well had to be excluded due to extremely low RNA extraction from the well and an insufficient quantity of cDNA being amplified to measured. […] Data was analyzed using R software (R Development Core Team, 2011).

Take `N#CC(=C(O)c1ccc(Cl)cc1Cl)c1nc2ccccc2c(=O)[nH]1` [HPI4]: in test [1], the “image absorbance over time” value is listed as “decreasing trend in absorbance”. Besides, the “mean number of neighbors each iRPE cell had” value in test [2] (Healthy-1 and Healthy-2 iRPE, across all time points, p<0.001) is reported as “significantly lower”. The “CPI_IntegratedIntensityEdge.K (Intensity 10), Mean” value in test [2] (week 2) is 5.11; in test [2] (week 3), 6.45; in test [2] (week 4), 6.45; in test [2] (week 5) it was 7.21; in test [2] (week 6), 8.06; in test [2] (week 7), 8.06. The “ML_MinIntensity.Mean (Intensity 1), Mean” value in test [2] (week 2) stood at 141.81; in test [2] (week 3), 179.97; in test [2] (week 4), 104.78; in test [2] (week 5), 133.78; in test [2] (week 6), 126.02; in test [2] (week 7) it was 110.26. Besides, the “baseline electrical response (TEP and TER) and its change to 1 mM potassium (K+) or 100 μM ATP” value in test [3] is listed as “significantly lower”.
Regarding `C[C@@]1(CO)[C@H](O)CC[C@@]2(C)[C@H]1CC[C@H]1C[C@@H]3C[C@@]12CC[C@]3(O)CO` [Aphidicolin], the “image absorbance over time” value in test [1] is listed as “increasing image absorbance”. For the same compound, the “CPI_IntegratedIntensityEdge.K (Intensity 10), Mean” value is reported as 5.87 in test [2] (week 2); 6.07 in test [2] (week 3); 5.3 in test [2] (week 4); 5.59 in test [2] (week 5); 4.76 in test [2] (week 6); 4.53 in test [2] (week 7). Moreover, the “ML_MinIntensity.Mean (Intensity 1), Mean” value in test [2] (week 2) amounted to 144.67; in test [2] (week 3) it was 204.31; in test [2] (week 5), 183.77; in test [2] (week 6), 185.15; in test [2] (week 7) it was 180.84. In test [4], the “mRNA and protein expression of maturation markers” value was “Higher”. Besides, the “baseline electrical response (TEP and TER) and its change to 1 mM potassium (K+) or 100 μM ATP” value in test [3] was “significantly greater”.
